In patent US10221173B2, “Chemical compounds” (AstraZeneca AB, priority 2017, dated 2019):
Converted amounts (≈) assume the structure as drawn.

What was measured:
[1] = biological target: recombinant human Estrogen Receptor alpha ligand binding domain (ER alpha-LBD (GST)) (Homo sapiens (Human), UniProt P03372); experiment: ERα binding assay (LanthaScreen TR-FRET competition)
[2] = biological target: T1, Estrogen Receptor (ERα) in MCF-7 cells (Homo sapiens (Human), UniProt P03372); experiment: MCF-7 ER down-regulation assay (immuno-fluorescence); format: cell-based
Procedure: The ability of compounds to down-regulate Estrogen Receptor (ER) numbers was assessed in a cell based immuno-fluorescence assay using the MCF-7 human ductal carcinoma breast cell line. MCF-7 cells were revived directly from a cryovial (approx 5×10^6 cells) in Assay Medium (phenol red free Dulbecco's Modified Eagle's medium (DMEM); Sigma D5921) containing 2 mM L-Glutamine and 5% (v/v) Charcoal/Dextran treated foetal calf serum. Cells were syringed once using a sterile 18G×1.5 inch (1.2×40 mm) broad gauge needle and cell density was measured using a Coulter Counter (Beckman). […] Following cell seeding, plates were incubated overnight at 37° C., 5% CO2 (Liconic carousel incubator). Test data was generated using the LabCyte Echomodel 555 compound reformatter which is part of an automated workcell (Integrated Echo 2 workcell). Compound stock solutions (10 mM) of the test compounds were used to generate a 384 well compound dosing plate (Labcyte P-05525-CV1). […] 40 μL of DMSO added to wells in row P on the source plate allowed for DMSO normalisation across the dose range. To dose the control wells 40 μL of DMSO was added to row O1 and 40 μL of 100 μM fulvestrant in DMSO was added to row O3 on the compound source plate.
The Echo uses acoustic technology to perform direct microplate-to-microplate transfers of DMSO compound solutions to assay plates. The system can be programmed to transfer volumes as low as 2.5 nL in multiple increments between microplates and in so doing generates a serial dilution of compound in the assay plate which is then back-filled to normalise the DMSO concentration across the dilution range. […] The fixing method described above was carried out on the Integrated Echo 2 workcell. Immunostaining was performed using an automated AutoElisa workcell. The PBS/Proclin was aspirated from all wells and the cells permeabilised with 40 μL PBS containing 0.5% Tween™ 20 (v/v) for 1 hour at room temperature. The plates were washed three times in 250 μL of PBS/0.05% (v/v) Tween 20 with Proclin (PBST with a Biocide preservative) and then 20 μL of ERα (SP1) Rabbit monoclonal antibody (Thermofisher) 1:1000 in PBS/Tween™/3% (w/v) Bovine Serum Albumin was added. The plates were incubated overnight at 4° C. (Liconic carousel incubator) and then washed three times in 250 μL of PBS/0.05% (v/v) Tween™ 20 with Proclin (PBST). The plates were then incubated with 20 μL/well of a goat anti-rabbit IgG AlexaFluor 594 or goat anti-rabbit AlexaFluor 488 antibody (Molecular Probes) with Hoechst at 1:5000 in PBS/Tween™/3% (w/v) Bovine Serum Albumin for 1 hour at room temperature. The plates were then washed three times in 250 μL of PBS/0.05% (v/v) Tween™ 20 with Proclin (PBST with a Biocide preservative). 20 μL of PBS was added to each well and the plates covered with a black plate seal and stored at 4° C. before being read. […] The mean total intensity was normalized for cell number giving the total intensity per cell. The data was exported into a suitable software package (such as Origin) to perform curve fitting analysis.

[3] = biological target: estrogen receptor (ERα) in CAMA-1 cells (Homo sapiens (Human), UniProt P03372); experiment: Western blotting assay, ER down-regulation in CAMA-1; format: cell-based; settings: CAMA-1, 100 nM compound, 48 h, vs 100 nM fulvestrant
[4] = biological target: T1, Estrogen Receptor (ERα) in MCF-7 cells; experiment: Western blotting assay, ER down-regulation in MCF-7; format: cell-based; settings: MCF-7, 100 nM compound, 48 h, vs 100 nM fulvestrant
[5] = Log D (shake flask, 1-octanol/aqueous buffer); format: physicochemical; settings: 1-octanol/aqueous buffer, pH 7.4, pH 7.4
[6] = Thermodynamic solubility (shake-flask); format: physicochemical; settings: aqueous phosphate buffer, 25 °C, pH 7.4, aqueous buffer, thermodynamic from solid, phosphate buffer pH 7.4, 24 hours
Procedure: The thermodynamic solubility of a research compound is measured under standard conditions. It is a shake-flask approach that uses 10 mM DMSO solutions which are supplied from the Compound Managements liquid store and is a high throughput method. The dried compounds are equilibrated in an aqueous phosphate buffer (pH 7.4) for 24 hours at 25° C., the portion with the dissolved compound is then separated from the remains. The solutions are analyzed and quantified using UPLC/MS/MS, QC-samples are incorporated in each assay-run to ensure the quality of the assay.

[7] = Human plasma protein binding (equilibrium dialysis); format: in vitro ADME
hERG potassium channel = hERG potassium channel (Homo sapiens (Human), UniProt Q12809)
Chain of hERG potassium channel (Q12809 whole entry): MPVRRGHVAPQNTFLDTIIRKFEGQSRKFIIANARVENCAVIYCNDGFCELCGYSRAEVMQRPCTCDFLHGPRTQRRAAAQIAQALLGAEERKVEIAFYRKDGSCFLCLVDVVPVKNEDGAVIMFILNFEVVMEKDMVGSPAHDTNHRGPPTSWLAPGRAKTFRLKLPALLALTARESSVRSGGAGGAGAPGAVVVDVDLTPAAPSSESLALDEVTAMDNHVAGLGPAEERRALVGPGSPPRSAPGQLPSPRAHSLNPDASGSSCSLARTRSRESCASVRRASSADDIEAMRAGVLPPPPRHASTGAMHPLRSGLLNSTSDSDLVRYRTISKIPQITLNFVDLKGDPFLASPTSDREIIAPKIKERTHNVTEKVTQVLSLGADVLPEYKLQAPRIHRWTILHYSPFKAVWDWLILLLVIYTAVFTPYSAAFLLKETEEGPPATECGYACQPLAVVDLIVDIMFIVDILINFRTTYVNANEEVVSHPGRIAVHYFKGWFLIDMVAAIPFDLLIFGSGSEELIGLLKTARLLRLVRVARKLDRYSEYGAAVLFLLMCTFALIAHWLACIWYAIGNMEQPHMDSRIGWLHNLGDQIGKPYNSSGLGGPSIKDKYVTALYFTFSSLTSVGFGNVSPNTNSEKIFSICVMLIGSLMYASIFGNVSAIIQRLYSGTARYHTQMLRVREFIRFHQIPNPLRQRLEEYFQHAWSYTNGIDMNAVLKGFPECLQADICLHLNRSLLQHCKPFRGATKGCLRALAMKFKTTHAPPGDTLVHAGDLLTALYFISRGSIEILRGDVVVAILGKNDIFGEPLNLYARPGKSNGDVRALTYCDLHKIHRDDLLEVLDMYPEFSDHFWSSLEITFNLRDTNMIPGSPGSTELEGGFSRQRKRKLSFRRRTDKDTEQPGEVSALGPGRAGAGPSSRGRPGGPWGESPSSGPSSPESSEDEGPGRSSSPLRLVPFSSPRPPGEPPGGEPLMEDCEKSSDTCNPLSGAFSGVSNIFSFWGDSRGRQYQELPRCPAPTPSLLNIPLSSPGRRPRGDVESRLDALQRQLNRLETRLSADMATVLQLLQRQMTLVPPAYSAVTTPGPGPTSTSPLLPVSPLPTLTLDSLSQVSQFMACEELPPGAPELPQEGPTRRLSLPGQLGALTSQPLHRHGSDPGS

T1 sequence (P03372 whole entry): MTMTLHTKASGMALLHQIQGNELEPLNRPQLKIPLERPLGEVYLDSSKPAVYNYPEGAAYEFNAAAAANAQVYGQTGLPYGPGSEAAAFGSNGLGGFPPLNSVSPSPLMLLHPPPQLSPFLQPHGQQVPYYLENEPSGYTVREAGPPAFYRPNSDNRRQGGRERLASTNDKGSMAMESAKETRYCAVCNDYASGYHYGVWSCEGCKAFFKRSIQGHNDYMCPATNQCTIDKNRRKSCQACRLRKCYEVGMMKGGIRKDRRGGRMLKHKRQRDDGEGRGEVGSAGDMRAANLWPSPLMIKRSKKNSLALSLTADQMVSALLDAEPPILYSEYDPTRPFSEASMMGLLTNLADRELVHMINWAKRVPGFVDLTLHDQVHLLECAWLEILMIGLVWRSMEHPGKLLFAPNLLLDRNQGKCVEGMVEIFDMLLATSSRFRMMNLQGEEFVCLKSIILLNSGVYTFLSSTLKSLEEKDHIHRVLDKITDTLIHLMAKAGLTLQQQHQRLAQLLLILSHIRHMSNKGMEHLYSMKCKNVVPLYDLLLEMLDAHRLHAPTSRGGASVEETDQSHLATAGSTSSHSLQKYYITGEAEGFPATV
Chain of estrogen receptor (ERα) in CAMA-1 cells (P03372 whole entry): as above
Chain of recombinant human Estrogen Receptor alpha ligand binding domain (ER alpha-LBD (GST)) (P03372 307-554): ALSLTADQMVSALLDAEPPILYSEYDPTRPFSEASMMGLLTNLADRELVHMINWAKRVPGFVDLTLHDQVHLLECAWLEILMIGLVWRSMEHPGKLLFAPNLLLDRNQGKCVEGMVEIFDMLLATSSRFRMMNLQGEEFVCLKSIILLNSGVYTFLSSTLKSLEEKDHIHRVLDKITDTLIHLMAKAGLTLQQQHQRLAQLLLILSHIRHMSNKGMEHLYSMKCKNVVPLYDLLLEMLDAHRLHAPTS

SMILES | IC50 [1] | IC50 [2] | CAMA1 Western % ER deg vs Fv [3] | MCF7 Western % ER deg vs Fv [4] | logD [5] | solubility at 24 h [6] | Human plasma protein binding (% free) [7] | IC50 (hERG potassium channel)
C[C@@H]1Cc2c([nH]c3ccccc23)[C@@H](c2c(F)ccc(OCCNCCCF)c2F)N1CC(F)F [Example 51, N-(2-(3-((1R,3R)-2-(2,2-difluoroethyl)-3-methyl-2,3,4,9-tetrahydro-1H-pyrido[3,4-b]indol-1-yl)-2,4-difluorophenoxy)ethyl)-3-fluoropropan-1-amine] | 1.2 nM | 0.12 nM | 93% | 92% | 3.2 | 122 µM (≈ 58.7 µg/mL) | 2.3 % free | 4100 nM
C[C@@H]1Cc2c([nH]c3ccccc23)[C@@H](c2c(F)cnc(OCCNCCCF)c2F)N1CC(F)(F)F [Example 107, N-(2-((3,5-difluoro-4-((1R,3R)-3-methyl-2-(2,2,2-trifluoroethyl)-2,3,4,9-tetrahydro-1H-pyrido[3,4-b]indol-1-yl)pyridin-2-yl)oxy)ethyl)-3-fluoropropan-1-amine] | 1.3 nM | 0.21 nM | 98% | 95% | 3.6 | 120 µM (≈ 60.1 µg/mL) | 1 % free | 8100 nM
C[C@@H]1Cc2c([nH]c3cccc(F)c23)[C@@H](c2c(F)ccc(OCCNCCCF)c2F)N1CC(F)(F)CO [Example 62, 3-((1R,3R)-1-(2,6-difluoro-3-(2-((3-fluoropropyl)amino)ethoxy)phenyl)-5-fluoro-3-methyl-1,3,4,9-tetrahydro-2H-pyrido[3,4-b]indol-2-yl)-2,2-difluoropropan-1-ol] | 0.71 nM | 0.076 nM | 96% | 95% | 3.3 | 302 µM (≈ 160 µg/mL) | 1.2 % free | 5000 nM
C[C@@H]1Cc2c([nH]c3ccccc23)[C@@H](c2cccc(OCCNCCCF)c2)N1CC1(F)COC1 [Example 1, 3-Fluoro-N-(2-(3-((1R,3R)-2-((3-fluorooxetan-3-yl)methyl)-3-methyl-2,3,4,9-tetrahydro-1H-pyrido[3,4-b]indol-1-yl)phenoxy)ethyl)propan-1-amine] | – | – | 66% | 79% | – | 303 µM (≈ 142 µg/mL) | – | 4400 nM
Cc1c(OCCNCCCF)ccnc1[C@@H]1c2[nH]c3ccccc3c2C[C@@H](C)N1CC(F)(F)CO [Example 96, 2,2-difluoro-3-((1S,3R)-1-(4-(2-((3-fluoropropyl)amino)ethoxy)-3-methylpyridin-2-yl)-3-methyl-1,3,4,9-tetrahydro-2H-pyrido[3,4-b]indol-2-yl)propan-1-ol] | 1.4 nM | 0.2 nM | 100% | 94% | 2.4 | 960 µM (≈ 471 µg/mL) | 7.1 % free | 10000 nM
C[C@@H]1Cc2c([nH]c3ccc(F)cc23)[C@@H](c2c(F)ccc(OCCNCCCF)c2F)N1CC(F)(F)CO [Example 15, 3-((1R,3R)-1-(2,6-difluoro-3-(2-((3-fluoropropyl)amino)ethoxy)phenyl)-6-fluoro-3-methyl-1,3,4,9-tetrahydro-2H-pyrido[3,4-b]indol-2-yl)-2,2-difluoropropan-1-ol] | 0.55 nM | 0.079 nM | 91% | 94% | 2.9 | 571 µM (≈ 302 µg/mL) | 3.2 % free | 4600 nM
Cc1c(OCCNCCCF)ncc(F)c1[C@@H]1c2[nH]c3ccccc3c2C[C@@H](C)N1CC(F)(F)CO [Example 110, 2,2-difluoro-3-((1R,3R)-1-(5-fluoro-2-(2-((3-fluoropropyl)amino)ethoxy)-3-methylpyridin-4-yl)-3-methyl-1,3,4,9-tetrahydro-2H-pyrido[3,4-b]indol-2-yl)propan-1-ol] | 0.43 nM | 0.045 nM | 83% | 91% | 3.1 | 939 µM (≈ 478 µg/mL) | – | 2800 nM
C[C@@H]1Cc2c([nH]c3cc(F)ccc23)[C@@H](c2c(F)ccc(OCCNCCCF)c2F)N1CC(F)(F)CO [Example 61, 3-((1R,3R)-1-(2,6-difluoro-3-(2-((3-fluoropropyl)amino)ethoxy)phenyl)-7-fluoro-3-methyl-1,3,4,9-tetrahydro-2H-pyrido[3,4-b]indol-2-yl)-2,2-difluoropropan-1-ol] | 0.79 nM | 0.19 nM | 83% | 94% | 3 | 446 µM (≈ 236 µg/mL) | 2.0 % free | 2700 nM
C[C@@H]1Cc2c([nH]c3ccccc23)[C@@H](c2nccc(OCCNCCCF)c2F)N1CC(F)(F)CO [Example 97, 2,2-difluoro-3-((1S,3R)-1-(3-fluoro-4-(2-((3-fluoropropyl)amino)ethoxy)pyridin-2-yl)-3-methyl-1,3,4,9-tetrahydro-2H-pyrido[3,4-b]indol-2-yl)propan-1-ol] | 2.2 nM | 0.66 nM | 84% | 89% | 1.8 | > 1000 µM | 6.8 % free | 18000 nM
Cc1ccc2[nH]c3c(c2c1)C[C@@H](C)N(CC(F)(F)CO)[C@@H]3c1c(F)ccc(OCCNCCCF)c1F [Example 63, 3-((1R,3R)-1-(2,6-difluoro-3-(2-((3-fluoropropyl)amino)ethoxy)phenyl)-3,6-dimethyl-1,3,4,9-tetrahydro-2H-pyrido[3,4-b]indol-2-yl)-2,2-difluoropropan-1-ol] | 1.1 nM | 0.32 nM | 85% | 94% | 3.1 | 273 µM (≈ 143 µg/mL) | 0.97 % free | 4700 nM
COc1ccc(NCCNCCCF)c(F)c1[C@@H]1c2[nH]c3ccccc3c2C[C@@H](C)N1CC(F)(F)F [Example 90, N1-(2-fluoro-4-methoxy-3-((1R,3R)-3-methyl-2-(2,2,2-trifluoroethyl)-2,3,4,9-tetrahydro-1H-pyrido[3,4-b]indol-1-yl)phenyl)-N2-(3-fluoropropyl)ethane-1,2-diamine] | 0.65 nM | 0.3 nM | 93% | 76% | 2.8 | 365 µM (≈ 186 µg/mL) | 1.1 % free | 5000 nM
C[C@@H]1Cc2c([nH]c3ccc(F)cc23)[C@@H](c2c(F)cnc(OCCNCCCF)c2F)N1CC(F)(F)CO [Example 65, 3-((1R,3R)-1-(3,5-difluoro-2-(2-((3-fluoropropyl)amino)ethoxy)pyridin-4-yl)-6-fluoro-3-methyl-1,3,4,9-tetrahydro-2H-pyrido[3,4-b]indol-2-yl)-2,2-difluoropropan-1-ol] | 0.64 nM | 0.058 nM | 97% | 94% | 3 | 462 µM (≈ 245 µg/mL) | 1.9 % free | 9400 nM
COc1cnc(OCCNCCCF)cc1[C@@H]1c2[nH]c3ccccc3c2C[C@@H](C)N1CC(F)(F)F [Example 12, 3-fluoro-N-(2-((5-methoxy-4-((1R,3R)-3-methyl-2-(2,2,2-trifluoroethyl)-2,3,4,9-tetrahydro-1H-pyrido[3,4-b]indol-1-yl)pyridin-2-yl)oxy)ethyl)propan-1-amine] | 0.62 nM | 0.059 nM | 89% | 92% | – | – | – | 8200 nM
C[C@@H]1Cc2c([nH]c3c(F)cccc23)[C@@H](c2c(F)ccc(OCCNCCCF)c2F)N1CC(F)(F)CO [Example 60, 3-((1R,3R)-1-(2,6-difluoro-3-(2-((3-fluoropropyl)amino)ethoxy)phenyl)-8-fluoro-3-methyl-1,3,4,9-tetrahydro-2H-pyrido[3,4-b]indol-2-yl)-2,2-difluoropropan-1-ol] | 0.84 nM | 0.12 nM | 97% | 92% | 3 | 351 µM (≈ 186 µg/mL) | 1.9 % free | 4400 nM
C[C@@H]1Cc2c([nH]c3ccccc23)[C@@H](c2nccc(OCCNCCCF)c2F)N1CC(F)(F)F [Example 92, 3-fluoro-N-(2-((3-fluoro-2-((1S,3R)-3-methyl-2-(2,2,2-trifluoroethyl)-2,3,4,9-tetrahydro-1H-pyrido[3,4-b]indol-1-yl)pyridin-4-yl)oxy)ethyl)propan-1-amine] | 1.6 nM | 0.4 nM | 91% | 93% | 2.7 | 468 µM (≈ 226 µg/mL) | – | 23000 nM
CCc1ccc(OCCNCCCF)cc1[C@@H]1c2[nH]c3ccccc3c2C[C@@H](C)N1CC(F)(F)F [Example 21, N-(2-(4-ethyl-3-((1R,3R)-3-methyl-2-(2,2,2-trifluoroethyl)-2,3,4,9-tetrahydro-1H-pyrido[3,4-b]indol-1-yl)phenoxy)ethyl)-3-fluoropropan-1-amine] | 2.6 nM | 1.6 nM | 95% | 99% | 4.6 | 3 µM (≈ 1.47 µg/mL) | 0.10 % free | –
